In patent US11130733B2, “4-OXO-alkylated tetramic acid compound, preparation method and use thereof” (BEIJING JOEKAI BIOTECH. LLC, priority 2017, dated 2021):
Several values for one entry are separate records, joined by “and”; a condition that tells them apart may be missing. Equal entries are not always repeated. Where two headings read alike, the source gives them in different places.

Assay: Pharmacokinetic evaluation, plasma and brain concentrations
Format: in vivo, ICR mice
Conditions: for concentration at 0.083 h / concentration at 0.25 h / concentration at 0.5 h / concentration at 1 h / concentration at 2 h / concentration at 4 h / concentration at 6 h / concentration at 8 h: male, ICR, mouse
Excerpt: Distribution of a medicament in the body is one of the important indicators to determine the dose and efficacy of the medicament. Thus, excellent candidate compounds should have good pharmacokinetic characteristics. In addition, since the compound of the present invention is intended to be used for the treatment of Alzheimer's disease, which is a disease of the central nervous system, the distribution pattern of the compound in the brain and the blood is also one of the subjects to be investigated. In this experiment, compound 50561 was administered to mice […] or by gavage, and the concentrations of the compound in blood and brain were measured at specific time points to determine the pharmacokinetic parameters.
Forty-eight male ICR mice purchased from Shanghai Sippr-BK Lab. Animal Co. Ltd were used in this experiment. The oral group was fasted for 10-14 hours before administration, and feeding was restored 4 hours after administration. Samples were collected from the intravenous administration group 0.083 h, 0.25 h, 0.5 h, 1 h, 2 h, 4 h, 8 h, and 24 h after administration, respectively: while for the oral administration group, about 0.5 mL of blood was collected from the heart 0.25 h, 0.5 h, 1 h, 2 h, 4 h, 6 h, 8 h, and 24 h after administration, respectively. Heparin sodium was used for anticoagulation. Blood samples were collected and placed on ice, and plasma was separated by centrifugation (centrifugation conditions: 8000 rpm, 6 minutes, 4C). The collected plasma was stored at −80° C. before analysis. After collecting plasma samples, brain tissues were collected, washed with normal saline, water-absorbed by filter paper, weighed immediately, and then placed in labeled tubes (one tube for one brain tissue). The samples to be tested were temporarily placed on ice before being stored in a −80° C. refrigerator.
The analysis methods of biological samples and the analysis of all samples were done by Medicilon Pharmaceutical Technology (Shanghai) Co., Ltd. The intraday accuracy evaluation of the quality control samples was carried out while analyzing the samples, and the accuracy of over 66.7% of the quality control samples was required to be between 80-120%.
When calculating the pharmacokinetic parameters, the BLQ before Cmax (including “No peak”) was calculated as 0; BLQ occurring after Cmax (including “No peak”) was not involved in the calculation. WinNonlin Professional V 5.2 (Pharsight, USA) was adopted to calculate the following pharmacokinetic parameters: AUC(0-t), AUC(0-∞), T1/2, MRT(0-∞), Cmax, and Tmax. The tissue/plasma ratio was to be calculated by the following formula based on the blood concentration data at different time points: Tissue/plasma ratio (mL/g)=tissue blood concentration/plasma blood concentration.

## O=C1C=C(OCc2ccc(F)cc2)[C@H](Cc2ccccc2)N1 [Compound 50561]
IV 1 mg/kg, 0.083 hr
  Brain/plasma ratio, Mean: 2.499 mL/G
IV 1 mg/kg, 0.083 hr, 1 mg/kg
  Blood concentration, individual mice: 327.86 ng/mL and 145.16 ng/mL and 434.45 ng/mL
  Brain tissue concentration, individual mice: 853.63 ng/G and 383.96 ng/G
  Brain/plasma ratio, individual mice: 2.604 mL/G and 2.645 mL/G and 2.249 mL/G
IV 1 mg/kg, 0.25 hr
  Brain/plasma ratio, Mean: 2.342 mL/G
IV 1 mg/kg, 0.25 hr, 1 mg/kg
  Blood concentration, individual mice: 180.29 ng/mL and 215.73 ng/mL
  Brain tissue concentration, individual mice: 435.34 ng/G and 465.70 ng/G
  Brain/plasma ratio, individual mice: 2.451 mL/G and 2.415 mL/G and 2.159 mL/G
IV 1 mg/kg, 0.5 hr
  Brain/plasma ratio, Mean: 2.488 mL/G
IV 1 mg/kg, 0.5 hr, 1 mg/kg
  Blood concentration, individual mice: 98.13 ng/mL and 89.73 ng/mL
  Brain tissue concentration, individual mice: 251.60 ng/G and 211.84 ng/G
  Brain/plasma ratio, individual mice: 2.540 mL/G and 2.564 mL/G and 2.361 mL/G
IV 1 mg/kg, 1 hr
  Brain/plasma ratio, Mean: 3.007 mL/G
IV 1 mg/kg, 1 hr, 1 mg/kg
  Blood concentration, individual mice: 18.27 ng/mL and 8.99 ng/mL and 18.70 ng/mL
  Brain tissue concentration, individual mice: 35.43 ng/G and 51.45 ng/G
  Brain/plasma ratio, individual mice: 2.330 mL/G and 3.941 mL/G and 2.751 mL/G
IV 1 mg/kg, 2 hr
  Blood concentration, individual mice: BLQ
  Brain tissue concentration, individual mice: BLQ
IV 1 mg/kg, 4 hr
  Blood concentration, individual mice: BLQ
  Brain tissue concentration, individual mice: BLQ
IV 1 mg/kg, 8 hr
  Blood concentration, individual mice: BLQ
  Brain tissue concentration, individual mice: BLQ
IV 1 mg/kg, 24 hr
  Blood concentration, individual mice: BLQ
  Brain tissue concentration, individual mice: BLQ
PO 10 mg/kg, 0.25 hr
  Brain/plasma ratio, Mean: 1.877 mL/G
PO 10 mg/kg, 0.25 hr, 10 mg/kg
  Blood concentration, individual mice: 655.31 ng/mL and 548.11 ng/mL
  Brain tissue concentration, individual mice: 1042.09 ng/G and 1147.13 ng/G
  Brain/plasma ratio, individual mice: 1.948 mL/G and 1.590 mL/G and 2.093 mL/G
PO 10 mg/kg, 0.5 hr
  Brain/plasma ratio, Mean: 2.147 mL/G
PO 10 mg/kg, 0.5 hr, 10 mg/kg
  Blood concentration, individual mice: 631.98 ng/mL and 529.57 ng/mL
  Brain tissue concentration, individual mice: 2484.73 ng/G and 1280.85 ng/G and 1048.58 ng/G
  Brain/plasma ratio, individual mice: 2.435 mL/G and 2.027 mL/G and 1.980 mL/G
PO 10 mg/kg, 1 hr
  Brain/plasma ratio, Mean: 2.265 mL/G
PO 10 mg/kg, 1 hr, 10 mg/kg
  Blood concentration, individual mice: 599.81 ng/mL and 532.80 ng/mL
  Brain tissue concentration, individual mice: 1290.84 ng/G and 1149.69 ng/G
  Brain/plasma ratio, individual mice: 2.485 mL/G and 2.152 mL/G and 2.158 mL/G
PO 10 mg/kg, 2 hr
  Brain/plasma ratio, Mean: 2.329 mL/G
PO 10 mg/kg, 2 hr, 10 mg/kg
  Blood concentration, individual mice: 128.34 ng/mL and 83.99 ng/mL and 219.54 ng/mL
  Brain tissue concentration, individual mice: 277.53 ng/G and 206.08 ng/G and 520.70 ng/G
  Brain/plasma ratio, individual mice: 2.163 mL/G and 2.454 mL/G and 2.372 mL/G
PO 10 mg/kg, 4 hr
  Brain/plasma ratio, Mean: 2.052 mL/G
PO 10 mg/kg, 4 hr, 10 mg/kg
  Blood concentration, individual mice: 27.74 ng/mL and 18.40 ng/mL and 10.71 ng/mL
  Brain tissue concentration, individual mice: 65.84 ng/G and 44.67 ng/G and 14.52 ng/G
  Brain/plasma ratio, individual mice: 2.373 mL/G and 2.428 mL/G and 1.355 mL/G
PO 10 mg/kg, 6 hr
  Brain/plasma ratio, Mean: 2.511 mL/G
PO 10 mg/kg, 6 hr, 10 mg/kg
  Blood concentration, individual mice: 6.30 ng/mL and 8.82 ng/mL
  Brain tissue concentration, individual mice: 11.72 ng/G and 17.40 ng/G and 25.83 ng/G
  Brain/plasma ratio, individual mice: 1.839 mL/G and 2.764 mL/G and 2.929 mL/G
PO 10 mg/kg, 8 hr
  Brain/plasma ratio, Mean: 2.009 mL/G
PO 10 mg/kg, 8 hr, 10 mg/kg
  Blood concentration, individual mice: 4.77 ng/mL and 3.88 ng/mL and 1.63 ng/mL
  Brain tissue concentration, individual mice: 9.49 ng/G and BLQ
  Brain/plasma ratio, individual mice: 1.575 mL/G and 2.443 mL/G
PO 10 mg/kg, 24 hr
  Blood concentration, individual mice: BLQ
  Brain tissue concentration, individual mice: BLQ
After intravenous injection and oral administration
  content in brain tissue compared with blood: higher than that in the blood
brain, iv, 1 mg/kg, IV 1 mg/kg, 0.083 hr, read-out: Brain tissue concentration, Mean
  concentration at 0.083 h: 738 ng/g
brain, iv, 1 mg/kg, IV 1 mg/kg, 0.25 hr, read-out: Brain tissue concentration, Mean
  concentration at 0.25 h: 454 ng/g
brain, iv, 1 mg/kg, IV 1 mg/kg, 0.25 hr, read-out: Brain tissue concentration, individual mice
  concentration at 0.25 h: 462 ng/g
brain, iv, 1 mg/kg, IV 1 mg/kg, 0.5 hr, read-out: Brain tissue concentration, Mean
  concentration at 0.5 h: 204 ng/g
brain, iv, 1 mg/kg, IV 1 mg/kg, 0.5 hr, read-out: Brain tissue concentration, individual mice
  concentration at 0.5 h: 148 ng/g
brain, iv, 1 mg/kg, IV 1 mg/kg, 1 hr, read-out: Brain tissue concentration, Mean
  concentration at 1 h: 43.1 ng/g
brain, iv, 1 mg/kg, IV 1 mg/kg, 1 hr, read-out: Brain tissue concentration, individual mice
  concentration at 1 h: 42.6 ng/g
brain, po, 10 mg/kg, PO 10 mg/kg, 0.25 hr, read-out: Brain tissue concentration, Mean
  concentration at 0.25 h: 1220 ng/g
brain, po, 10 mg/kg, PO 10 mg/kg, 0.25 hr, read-out: Brain tissue concentration, individual mice
  concentration at 0.25 h: 1470 ng/g
brain, po, 10 mg/kg, PO 10 mg/kg, 0.5 hr, read-out: Brain tissue concentration, Mean
  concentration at 0.5 h: 1600 ng/g
brain, po, 10 mg/kg, PO 10 mg/kg, 1 hr, read-out: Brain tissue concentration, Mean
  concentration at 1 h: 1120 ng/g
brain, po, 10 mg/kg, PO 10 mg/kg, 1 hr, read-out: Brain tissue concentration, individual mice
  concentration at 1 h: 906 ng/g
brain, po, 10 mg/kg, PO 10 mg/kg, 2 hr, read-out: Brain tissue concentration, Mean
  concentration at 2 h: 335 ng/g
brain, po, 10 mg/kg, PO 10 mg/kg, 4 hr, read-out: Brain tissue concentration, Mean
  concentration at 4 h: 41.7 ng/g
brain, po, 10 mg/kg, PO 10 mg/kg, 6 hr, read-out: Brain tissue concentration, Mean
  concentration at 6 h: 18.3 ng/g
brain, po, 10 mg/kg, PO 10 mg/kg, 8 hr, read-out: Brain tissue concentration, Mean
  concentration at 8 h: 8.5 ng/g
brain, po, 10 mg/kg, PO 10 mg/kg, 8 hr, read-out: Brain tissue concentration, individual mice
  concentration at 8 h: 7.52 ng/g
plasma, iv, 1 mg/kg, IV 1 mg/kg, 0.083 hr, read-out: Blood concentration, Mean
  concentration at 0.083 h: 302 ng/mL
plasma, iv, 1 mg/kg, IV 1 mg/kg, 0.25 hr, read-out: Blood concentration, Mean
  concentration at 0.25 h: 195 ng/mL
plasma, iv, 1 mg/kg, IV 1 mg/kg, 0.25 hr, read-out: Blood concentration, individual mice
  concentration at 0.25 h: 188 ng/mL
plasma, iv, 1 mg/kg, IV 1 mg/kg, 0.5 hr, read-out: Blood concentration, Mean
  concentration at 0.5 h: 82 ng/mL
plasma, iv, 1 mg/kg, IV 1 mg/kg, 0.5 hr, read-out: Blood concentration, individual mice
  concentration at 0.5 h: 58.1 ng/mL
plasma, iv, 1 mg/kg, IV 1 mg/kg, 1 hr, read-out: Blood concentration, Mean
  concentration at 1 h: 15.3 ng/mL
plasma, po, 10 mg/kg, PO 10 mg/kg, 0.25 hr, read-out: Blood concentration, Mean
  concentration at 0.25 h: 653 ng/mL
plasma, po, 10 mg/kg, PO 10 mg/kg, 0.25 hr, read-out: Blood concentration, individual mice
  concentration at 0.25 h: 754 ng/mL
plasma, po, 10 mg/kg, PO 10 mg/kg, 0.5 hr, read-out: Blood concentration, Mean
  concentration at 0.5 h: 727 ng/mL
plasma, po, 10 mg/kg, PO 10 mg/kg, 0.5 hr, read-out: Blood concentration, individual mice
  concentration at 0.5 h: 1020 ng/mL
plasma, po, 10 mg/kg, PO 10 mg/kg, 1 hr, read-out: Blood concentration, Mean
  concentration at 1 h: 499 ng/mL
plasma, po, 10 mg/kg, PO 10 mg/kg, 1 hr, read-out: Blood concentration, individual mice
  concentration at 1 h: 365 ng/mL
plasma, po, 10 mg/kg, PO 10 mg/kg, 2 hr, read-out: Blood concentration, Mean
  concentration at 2 h: 144 ng/mL
plasma, po, 10 mg/kg, PO 10 mg/kg, 4 hr, read-out: Blood concentration, Mean
  concentration at 4 h: 18.9 ng/mL
plasma, po, 10 mg/kg, PO 10 mg/kg, 6 hr, read-out: Blood concentration, Mean
  concentration at 6 h: 7.16 ng/mL
plasma, po, 10 mg/kg, PO 10 mg/kg, 6 hr, read-out: Blood concentration, individual mice
  concentration at 6 h: 6.37 ng/mL
plasma, po, 10 mg/kg, PO 10 mg/kg, 8 hr, read-out: Blood concentration, Mean
  concentration at 8 h: 3.43 ng/mL
